Data: patent US10155726B2, “Substituted pyridines and uses thereof” (PELOTON THERAPEUTICS, INC., priority 2015, dated 2018)
“Also recorded” adds a separate entry of the source.

Assays:
786-O-Hif-Luc cells = experiment: Luciferase Assay; type: cell-based; settings: about 24 hours
Description: 786-O-Hif-Luc single clone cells were obtained by infecting 786-O cells (ATCC® CRL-1932™) with commercial lentivirus that delivers a luciferase gene driven by multiple HIF responsive elements (Cignal Lenti HIF Reporter (luc): CLS-007L, Qiagen) at Multiplicity of Infection (MOI) of 25 for 24 hours. […] A pool of infected cells were then selected against 2 μg/mL of puromycin (P8833, Sigma) for 10 days followed by limited dilution to select single clones. […] For the luciferase assay, about 7500 786-O-Hif-Luc cells in 90 μL growth medium were seeded into each well of a 96-well white opaque plate (08-771-26, Fisher scientific) a day before treatment with the layout presented in FIG. 4. […] Each concentration was tested in triplicate. After about 24 hours, luciferase activity was determined using ONE-Glo Luciferase Assay Reagent (E6110, Promega) following the manufacturer's recommended procedure. EC50 were calculated using Dotmatics software.

[1] = target: T1, HIF-2α HIS TAG-PASB Domain (Homo sapiens, UniProt Q99814); experiment: HIF-2α Scintillation Proximity Assay (SPA); type: binding; settings: displacement of tritiated probe from HIF-2α PAS-B domain
T1 construct: 100 nM HIF-2α HIS TAG-PASB Domain
T1 sequence (Q99814 239-348): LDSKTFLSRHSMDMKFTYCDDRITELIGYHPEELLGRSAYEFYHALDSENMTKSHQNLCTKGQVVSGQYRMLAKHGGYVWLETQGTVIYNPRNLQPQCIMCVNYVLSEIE
Description: The total assay volume was about 100 μL in the following configuration: 2 μL compound in 100% DMSO, 88 μL buffer with protein and probe and 10 μL of SPA beads. […] The percent inhibition was determined and IC50 values were calculated using the Dotmatics system based on the following equation: % inhibition=[(high control−sample)/(high control−low control)]×100.

[2] = system: HIF-2α target genes VEGF, PAI-1 and CCND1; experiment: PK/PD study: expression of HIF-2α regulated genes in 786-O tumor xenografts by qRT-PCR; type: in vivo, SCID/Biege mice; settings: 10 mg/kg oral gavage, six doses at 12 hour interval, 12 hours post last dose
Description: (§1) When the xenografts reached about 750 mm^3 in size, the tumor bearing mice were randomly grouped into four groups (n=3). […] All animals were sacrificed at 12 hours post last dose. Tumors and plasma were collected from each animal. Total RNA was extracted from the tumors, and the expression levels of putative HIF-2α regulated genes were determined by qRT-PCR. […] The level of human VEGFA was assessed using an ELISA assay.

786-O cells = experiment: VEGF ELISA Assay; type: cell-based; settings: Homo sapiens, 786-0; VEGF concentration in culture medium of 786-O cells
Description: About 7500 786-O cells in 180 μL of growth medium were seeded into each well of a 96-well, white, clear bottom plate (07-200-566, Fisher Scientific) on day one in the layout presented in FIG. 3. […] Each concentration was plated in duplicate. About 20 hours later, medium was removed by suction and each well was supplied with 180 μL of growth medium. About 20 μl freshly-made 10× compound stocks were added to each well. […] The EC50 was calculated by GraphPad Prism using the dose-response-inhibition (four parameter) equation. The cell-seeded plate was then subjected to CellTiter-Glo luminescence cell viability assay (Promega) by adding 50 μL of Celltiter Glo reagent into each well and shaking the plate for 8 minutes at 550 rpm (Thermomixer R, Eppendorf) then the luminescence signal immediately read in a plate reader (3 second delay, 0.5 second/well integration time, Synergy 2 multi Detection Microplate reader).

human VEGFA = experiment: PK/PD study: human VEGFA in plasma of 786-O xenograft bearing mice by ELISA; type: in vivo, SCID/Biege mice; settings: 10 mg/kg oral gavage, six doses at 12 hour interval, 12 hours post last dose
Description: as §1

| EC50 (786-O-Hif-Luc cells) | IC50 [1] | EC50 (786-O cells) | Compound | mRNA levels of HIF-2α target genes (VEGF, PAI-1, CCND1) in 786-O xenografts [2] | level of human VEGFA in plasma of 786-O xenograft bearing mice (human VEGFA) |
| --- | --- | --- | --- | --- | --- |
| > 1000 nM | > 1000 nM |  | N#Cc1cc(F)cc(Oc2nnc(C(F)(F)F)c3c2CCC3O)c1 (stereo not shown) [Compound 42, 3-fluoro-5-((5-hydroxy-4-(trifluoromethyl)-6,7-dihydro-5H-cyclopenta[d]pyridazin-1-yl)oxy)benzonitrile] |  |  |
|  | > 1000 nM |  | CC(C)Oc1cnc(C(F)(F)F)c2c1C[C@H](F)[C@H]2O [Compound 26] |  |  |
|  | > 1000 nM |  | O[C@H]1c2c(C(F)F)ncc(OC3CC(F)(F)C3)c2C[C@H]1F [Compound 30] |  |  |
| > 1000 nM | 250 to 1000 nM |  | CS(=O)(=O)c1ncc(OC2CC(F)(F)C2)c2c1[C@H](O)[C@H](F)C2 [Compound 12] |  |  |
|  | 250 to 1000 nM |  | O[C@H]1c2c(C(F)(F)F)ncc(-c3cc(F)cc(F)c3)c2C[C@H]1F [Compound 36] |  |  |
| 250 to 1000 nM | < 50 nM |  | N#Cc1cc(F)cc(Oc2cnc(C(F)(F)F)c3c2CCC3O)c1 (stereo not shown) [Compound 8] |  |  |
| > 1000 nM | > 1000 nM |  | O=S(=O)(c1cnc(Oc2cc(F)cc(F)c2)c2c1CCC2)C(F)F [Compound 6, 4-(difluoromethylsulfonyl)-1-(3,5-difluorophenoxy)-6,7-dihydro-5H-cyclopenta[c]pyridine] |  |  |
| < 50 nM | < 50 nM |  | O[C@H]1c2c(C(F)(F)F)ncc(Oc3cncc(F)c3)c2[C@@H](F)[C@H]1F [Compound 40] |  |  |
| > 1000 nM | 50 to 249 nM |  | N#Cc1cc(F)cc(Oc2ncc(Br)c3c2[C@@H](F)C(F)(F)[C@H]3O)c1 [Compound 17] |  |  |
|  | > 1000 nM |  | CS(=O)(=O)c1cnc(Oc2cc(F)cc(C#N)c2)c2c1[C@H](O)[C@H](F)C2 [Compound 19] |  |  |
| > 1000 nM | < 50 nM |  | CS(=O)(=O)c1cnc(Oc2cc(F)cc(C#N)c2)c2c1[C@H](O)C(F)(F)[C@@H]2F [Compound 20] |  |  |
|  | 50 to 249 nM |  | O[C@H]1c2c(C(F)(F)F)ncc(OCCCF)c2C[C@@H]1F [Compound 24] |  |  |
|  | 250 to 1000 nM |  | CC(C)Oc1cnc(C(F)(F)F)c2c1C[C@@H](F)[C@H]2O [Compound 25] |  |  |
|  | > 1000 nM |  | O[C@H]1c2c(C(F)F)ncc(OC3CC(F)(F)C3)c2C[C@@H]1F [Compound 31] |  |  |
| 250 to 1000 nM | 50 to 249 nM |  | CS(=O)(=O)c1ncc(Oc2cc(F)cc(C#N)c2)c2c1[C@H](O)[C@H](F)C2 [Compound 4, 3-fluoro-5-(((6R,7S)-6-fluoro-7-hydroxy-1-(methylsulfonyl)-6,7-dihydro-5H-cyclopenta[c]pyridin-4-yl)oxy)benzonitrile] |  |  |
|  | > 1000 nM |  | CS(=O)(=O)c1cnc(Oc2cc(F)cc(C#N)c2)c2c1[C@H](O)[C@H](F)[C@@H]2F [Compound 18] |  |  |
| 50 to 249 nM | 50 to 249 nM |  | O[C@H]1c2c(C(F)(F)F)ncc(OCC(F)F)c2C[C@@H]1F [Compound 27] |  |  |
| 250 to 1000 nM | 250 to 1000 nM |  | N#Cc1cc(F)cc(-c2cnc(C(F)(F)F)c3c2C[C@@H](F)[C@H]3O)c1 (racemic) [Compound 7, 3-fluoro-5-((6R,7S)-6-fluoro-7-hydroxy-1-(trifluoromethyl)-6,7-dihydro-5H-cyclopenta[c]pyridin-4-yl)benzonitrile] |  |  |

| EC50 (786-O-Hif-Luc cells) | IC50 [1] | EC50 (786-O cells) | Compound | mRNA levels of HIF-2α target genes (VEGF, PAI-1, CCND1) in 786-O xenografts [2] | level of human VEGFA in plasma of 786-O xenograft bearing mice (human VEGFA) |
| --- | --- | --- | --- | --- | --- |
| < 50 nM | < 50 nM | < 50 nM | N#Cc1cc(F)cc(Oc2cnc(C(F)(F)F)c3c2[C@@H](F)[C@@H](F)[C@H]3O)c1 [Compound 22, 3-(((5R,6S,7S)-5,6-difluoro-7-hydroxy-1-(trifluoromethyl)-6,7-dihydro-5H-cyclopenta[c]pyridin-4-yl)oxy)-5-fluorobenzonitrile] | decreased; also recorded: significant reduction | decreased; also recorded: significant reduction |
|  | > 1000 nM |  | N#Cc1cc(F)cc(Oc2ncc(C(F)(F)F)c3c2C[C@@H](F)[C@H]3O)c1 [Compound 33, 3-fluoro-5-(((5S,6R)-6-fluoro-5-hydroxy-4-(trifluoromethyl)-6,7-dihydro-5H-cyclopenta[c]pyridin-1-yl)oxy)benzonitrile] |  |  |
| < 50 nM | < 50 nM | < 50 nM | O[C@H]1c2c(C(F)(F)F)ncc(O[C@H]3C[C@H](F)C3)c2C[C@H]1F [Compound 14] |  |  |
| 50 to 249 nM | < 50 nM |  | O[C@H]1c2c(C(F)(F)F)ncc(OCCCF)c2C[C@H]1F [Compound 23] |  |  |
| 50 to 249 nM | < 50 nM | 250 to 1000 nM | O[C@H]1c2c(C(F)(F)F)ncc(OCC(F)F)c2C[C@H]1F [Compound 9] |  |  |
| > 1000 nM | 250 to 1000 nM |  | CS(=O)(=O)c1cnc(Oc2cc(F)cc(C#N)c2)c2c1[C@H](O)C(F)(F)[C@H]2F [Compound 21] |  |  |
| > 1000 nM | > 1000 nM |  | O[C@@H]1CCc2c(OCC(F)F)cnc(C(F)(F)F)c21 [Compound 10] |  |  |
| 50 to 249 nM | < 50 nM | 50 to 249 nM | N#Cc1cncc(Oc2cnc(C(F)(F)F)c3c2[C@@H](F)[C@@H](F)[C@H]3O)c1 [Compound 34, 5-(((5R,6S,7S)-5,6-difluoro-7-hydroxy-1-(trifluoromethyl)-6,7-dihydro-5H-cyclopenta[c]pyridin-4-yl)oxy)nicotinonitrile] | decreased; also recorded: significant reduction | decreased; also recorded: significant reduction |
|  | > 1000 nM |  | CS(=O)(=O)c1ncc(OC2CC(F)(F)C2)c2c1[C@H](O)[C@@H](F)C2 [Compound 11] |  |  |
|  | > 1000 nM |  | N#Cc1cc(F)cc(Oc2ncc(C(F)(F)F)c3c2CCC3O)c1 (stereo not shown) [Compound 32] |  |  |
|  | > 1000 nM |  | CS(=O)(=O)c1cnc(Oc2cc(F)cc(C#N)c2)c2c1C(O)CC2 (stereo not shown) [Compound 28] |  |  |
|  | > 1000 nM |  | O/N=C1/c2c(C(F)(F)F)ncc(OCC(F)F)c2CC1F (stereo not shown) [Compound 38] |  |  |
|  | > 1000 nM |  | OC1CCc2c(OCC(F)F)cnc(C3(C(F)(F)F)CC3)c21 (stereo not shown) [Compound 39] |  |  |
|  | > 1000 nM |  | O[C@H]1c2c(C(F)(F)F)ncc(-c3ccccc3)c2C[C@H]1F [Compound 35] |  |  |
| 50 to 249 nM | 50 to 249 nM |  | O[C@H]1c2c(C(F)(F)F)ncc(Oc3cncc(F)c3)c2C[C@H]1F [Compound 13] |  |  |
|  | > 1000 nM |  | N#Cc1cc(F)cc(Oc2ncc(Br)c3c2C(F)C(F)(F)C3F)c1 (stereo not shown) [Compound 16] |  |  |
| < 50 nM | < 50 nM | 50 to 249 nM | N#Cc1cc(F)cc(Oc2cnc(C(F)(F)F)c3c2C[C@@H](F)[C@H]3O)c1 [Compound 3, 3-fluoro-5-(((6R,7S)-6-fluoro-7-hydroxy-1-(trifluoromethyl)-6,7-dihydro-5H-cyclopenta[c]pyridin-4-yl)oxy)benzonitrile] |  |  |

| Compound | EC50 (786-O-Hif-Luc cells) | IC50 [1] | EC50 (786-O cells) | mRNA levels of HIF-2α target genes (VEGF, PAI-1, CCND1) in 786-O xenografts [2] | level of human VEGFA in plasma of 786-O xenograft bearing mice (human VEGFA) |
| --- | --- | --- | --- | --- | --- |
| O[C@@H]1CCc2c(OC3CC(F)(F)C3)cnc(C(F)(F)F)c21 [Compound 2, (R)-4-(3,3-difluorocyclobutoxy)-1-(trifluoromethyl)-6,7-dihydro-5H-cyclopenta[c]pyridin-7-ol] | 250 to 1000 nM | < 50 nM |  |  |  |
| O[C@H]1c2c(C(F)(F)F)ncc(OC3CC(F)(F)C3)c2[C@@H](F)[C@H]1F [Compound 37, (5R,6S,7S)-4-(3,3-difluorocyclobutoxy)-5,6-difluoro-1-(trifluoromethyl)-6,7-dihydro-5H-cyclopenta[c]pyridin-7-ol] | < 50 nM | < 50 nM | < 50 nM | decreased; also recorded: significant reduction | decreased; also recorded: significant reduction |
| O[C@H]1c2c(C(F)(F)F)ncc(OC3CC(F)(F)C3)c2C[C@H]1F [Compound 1, (6R,7S)-4-(3,3-difluorocyclobutoxy)-6-fluoro-1-(trifluoromethyl)-6,7-dihydro-5H-cyclopenta[c]pyridin-7-ol] | < 50 nM | < 50 nM | < 50 nM |  |  |
